In publication PMC10305119, “Analogs of 6-Bromohypaphorine with Increased Agonist Potency for α7 Nicotinic Receptor as Anti-Inflammatory Analgesic Agents” (Marine Drugs, 2023):
Like-named read-outs stand apart in the source and are kept apart here.

How the values were obtained:
human α7 nAChR = biological target: T1, human α7 nAChR (Homo sapiens, UniProt P36544); assay: Calcium fluorescence assay on α7 nAChR expressed in Neuro2a cells, in the presence of PNU120596; assay type: cell-based; conditions: for α7 nAChR agonistic activity: at concentrations up to 1 mM, PNU 120,596 present
T1 construct: expressed in transfected cells; host or cells: mouse neuroblastoma Neuro2a, transient co-transfection with Ric-3 (Ric3-pCMV6-XL5, OriGene) and the calcium sensor Case12
T1 sequence (P36544 23-502): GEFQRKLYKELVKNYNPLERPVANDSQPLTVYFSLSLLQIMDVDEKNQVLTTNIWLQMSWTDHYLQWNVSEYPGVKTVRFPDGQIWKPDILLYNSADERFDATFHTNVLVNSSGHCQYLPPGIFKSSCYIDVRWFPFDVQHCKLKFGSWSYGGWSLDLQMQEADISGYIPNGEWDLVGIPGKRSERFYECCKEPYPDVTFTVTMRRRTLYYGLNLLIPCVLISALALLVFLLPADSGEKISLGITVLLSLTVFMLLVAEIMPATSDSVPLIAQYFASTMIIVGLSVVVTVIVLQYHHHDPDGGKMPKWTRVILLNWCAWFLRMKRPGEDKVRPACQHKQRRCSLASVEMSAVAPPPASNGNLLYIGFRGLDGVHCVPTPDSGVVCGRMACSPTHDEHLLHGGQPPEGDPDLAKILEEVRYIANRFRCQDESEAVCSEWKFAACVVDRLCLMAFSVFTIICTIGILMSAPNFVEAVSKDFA
Protocol: A panel of the synthesized compounds was tested to determine their activity on α7 nAChR by fluorescence detection of cytoplasmic calcium rise (Figure 2a).
Mouse neuroblastoma Neuro2a cells were purchased from the Russian collection of cell cultures (Institute of Cytology, Russian Academy of Sciences, Saint Petersburg, Russia). Cells were cultured in Dulbecco’s modified Eagle’s essential medium (Paneco, Moscow, Russia) supplemented with 10% fetal bovine serum (Sigma, St. Louis, MO, USA). The cells one day before transfection were subcultured and plated at a density of 10,000 cells per well on a 96-well plate. The next day, Neuro2a cells were transiently transfected with plasmids coding α7 nAChR (human α7 nAChR-pCEP4) or its mutants, the chaperone Ric-3 (Ric3-pCMV6-XL5, OriGene, USA) and a fluorescent calcium sensor Case12 (pCase12-cyto vector, Evrogen, Russia) in molar ratio 4:1:1. Lipofectamine transfection protocol (Invitrogen, Waltham, MA, USA) was performed as recommended by the manufacturer. Transfected cells were grown at 37 °C in a CO2 incubator for 48 h.
Calcium […] assay was performed as described previously. Briefly, Transfected Neuro2a cells were grown on black 96-well plates (Corning, Somerville, MA, USA) at 37 °C in a CO2 incubator for 72 h, then growth medium was substituted with buffer containing 140 mM NaCl, 2 mM CaCl2, 2.8 mM KCl, 4 mM MgCl2, 20 mM HEPES, 10 mM glucose; pH 7.4.
Cells were incubated with the α7 nAChR positive allosteric modulator PNU120596 (10 μM, Tocris, Bristol, UK) for 20 min at room temperature before the addition of tested compounds. Plates were measured in microplate reader Hidex Sence (Hidex, Turku, Finland) using excitation at 485 nm and emission at 535 ± 10 nm. Fluorescence peak intensity in each well was expressed as a percentage of the maximal obtained response. Data files were analysed using Hidex Sence software (Hidex, Turku, Finland). Controls were run in the presence of 4 μM α-cobratoxin.
The R statistical programming environment “https://www.r-project.org/” (accessed on 16 June 2023) was used to analyze the results. Base R graphics and ggplot2 [54] graphical library were used for the data visualisation. Dose-response curves were fitted using “nlm” function and the following equation: response ~ (100/1 + (EC50/x)^n), where x denotes base 10 logarithm of ligand concentration in moles per liter (normalized to 1M) and n is the Hill coefficient. Libraries “rgl” “https://CRAN.R-project.org/package=rgl” (accessed on 16 May 2023) and “barplot3d” “https://cran.r-project.org/src/contrib/Archive/barplot3d/” (accessed on 16 May 2023) were used to generate the 3D bar chart shown on Figure 2b.
Figure 2 In vitro activity determination of the synthesized compounds. […] The receptor activation was detected as an increase in fluorescent signal in cell cytoplasm by fluorescence microscopy or as total fluorescence of the well in 96-well plate reader setup. Normalized fluorescence amplitude was plotted against base 10 logarithm of mole per liter concentration of the tested agonist and EC50 values were than calculated using dose-response equation. […] Substitutions in the 6th position of the indole ring (designated as X) were halogens (green shadow), hydrogen bond acceptors (yellow shadow) or hydrogen bond donors (blue shadow). Carboxy group modifications were comprised by free acid (Q = OH), ethers (Q = OCH3, OC2H5), and amides (Q = NH2, NHCH3).

[1] = tested on: carrageenan-induced inflammation; assay: Carrageenan-induced inflammation test; assay type: in vivo, ICR mice; conditions: for oedema (paw diameter): 0.5 mg/kg (hypaphorine and 6ID also 1 mg/kg); for analgesia in von Frey test: versus vehicle
Protocol: Subplantar 1% carrageenan injections in a volume of 30 μL into the right hind paw were carried out to generate an inflammation model in mice. The paw volume was measured beforehand using an electronic calliper. The maximum effect of the introduction of carrageenan was observed after 3 h. […] The control group was treated with saline (0.9% NaCl). Two hours after the drug administration (total 3 h from carrageenan injection), the size of the pad of the right hind paw was measured, the von Frey test and paw pressure analgesimeter pain sensitivity assessment were performed.
Carrageenan inflammation was induced by injecting 30 μL of a 1% carrageenan suspension (Sigma-Aldrich, lot #SLBK3896V) into the subplantar surface of the ICR mice hind paw. The oedema degree of the carrageenan-induced paw was evaluated using an electronic calliper by the volume difference of the animal’s right hind paw after (3 h from carrageenan injection) and before being hurt by carrageenan.
[…] The control group was treated with saline (0.9% NaCl).
Antinociceptive testing was performed 2 h after the drug administration (3 h after carrageenan injection).
Nociceptive testing was performed by utilizing the von Frey test and Paw pressure test.
The animals were placed in 20 cm × 20 cm Plexiglas boxes equipped with a metallic mesh floor. Animals were allowed to habituate themselves to their environment for 15 min before the test. […] The paw sensitivity threshold was defined as the minimum force required to elicit a robust and immediate withdrawal reflex of the paw. Spontaneous movements associated with locomotion were not considered as a withdrawal response. Measurements were repeated 3 times and the final value was obtained by averaging the 3 measurements.
Mechanical hyperalgesia was measured as a paw withdrawal response to a gradual increase of mechanical pressure applied by the Rodent pinchers—analgesia meter (model BIO-RP-M; BioSeb, Vitrolles, France). The influence of stimulation on each hind paw was recorded three times. The maximum force applied to the paw was recorded as the grams (g) of force on the dynamometer.

SMILES | EC50 (human α7 nAChR) | oedema (paw diameter) ([1]; mice, 2 h after drug, listed as 6ID) | analgesia in von Frey test ([1]; mice, 2 h after drug) | carrageenan-induced allodynia and hyperalgesia ([1]; rodents, doses 0.1 and 0.5 mg/kg) | EC50 (human α7 nAChR; human α7 nAChR in Neuro2a cells, PNU120596 10 μM present, read-out: EC50) | oedema (paw diameter) ([1]; mice, 2 h after drug, listed as 6ND) | α7 nAChR agonistic activity (human α7 nAChR; listed as Hypaphorine) | α7 nAChR agonistic activity (human α7 nAChR; listed as L-hypaphorine) | EC50 (human α7 nAChR; human α7 nAChR in Neuro2a cells, PNU120596 10 μM present) | analgesia in paw pressure test (mechanical hyperalgesia) ([1]; mice, 2 h after drug) | oedema (paw diameter) ([1]; mice, 2 h after drug) | oedema (paw diameter) ([1]; mice, 2 h after drug, listed as synthetic hypaphorine)
COC(=O)[C@@H](Cc1c[nH]c2cc(I)ccc12)[N+](C)(C)C [Compound 1, (D)-6-iodohypaphorine methyl ester] | 0.61 µM | marked decrease in paw diameter at doses 0.5 and 1 mg/kg | significant analgesia | decreased carrageenan-induced allodynia and hyperalgesia | – | – | – | – | – | – | – | –
COC(=O)C(Cc1c[nH]c2cc([N+](=O)[O-])ccc12)[N+](C)(C)C (centres unmarked) [Compound 5, methyl ester of 6-nitrohypaphorine] | – | – | significant analgesia | – | 14 µM | moderate anti-oedemic effect at a dose of 0.5 mg/kg | – | – | – | – | – | –
C[N+](C)(C)[C@H](Cc1c[nH]c2ccccc12)C(=O)[O-] [Compound 16, L-hypaphorine, reference compound] | – | – | significant analgesia | – | – | – | did not show α7 nAChR agonistic activity | failed to activate α7 nAChR | no agonistic activity | strong evidence of analgesia in algesimeter and von Frey tests | only a tendency to decrease oedema, not statistically significant | No significant effect
